Test results: patent publication US20240317718A1, “SUBSTITUTED HETEROCYCLIC COMPOUNDS” (BRISTOL-MYERS SQUIBB COMPANY, priority 2021, published 2024)

Tested on: Caco-2 cells
Details: human, Caco-2, 2 h, 3 μM, pH 7.4

| CACO2 (A-B) [nm/s] | Compound |
| --- | --- |
| 460 | [2H]C([2H])([2H])NC(=O)c1nnc(NC(=O)C2CC2)cc1Nc1cccc(-c2cc(C)ncn2)c1OC [Example 8, 6-cyclopropaneamido-4-{[2-methoxy-3-(6-methylpyrimidin-4-yl)phenyl]amino}-N-(^2H3)methylpyridazine-3-carboxamide] |
| 270 | [2H]C([2H])([2H])NC(=O)c1nnc(NC(=O)C2CC2)cc1Nc1cccc(-c2cnc(C3CC3)cn2)c1OC [Example 11, 6-cyclopropaneamido-4-{[3-(5-cyclopropylpyrazin-2-yl)-2-methoxyphenyl]amino}-N-(^2H3)methylpyridazine-3-carboxamide] |
| 513 | [2H]C([2H])([2H])NC(=O)c1nnc(NC(=O)C2CC2)cc1Nc1cccc(-c2cnc(F)cn2)c1OC [Example 10, 6-cyclopropaneamido-4-{[3-(5-fluoropyrazin-2-yl)-2-methoxyphenyl]amino}-N-(^2H3)methylpyridazine-3-carboxamide] |
| 211 | [2H]C([2H])([2H])NC(=O)c1nnc(NC(=O)C2CC2)cc1Nc1cccc(-c2nc(C)ns2)c1OC [Example 13, 6-cyclopropaneamido-4-{[2-methoxy-3-(3-methyl-1,2,4-thiadiazol-5-yl)phenyl]amino}-N-(^2H3)methylpyridazine-3-carboxamide] |
| 16 | [2H]C([2H])([2H])NC(=O)c1nnc(NC(=O)C2CC2)cc1Nc1cccc(-c2cnc([N+](=O)[O-])cn2)c1OC [Example 12, 6-cyclopropaneamido-4-{[2-methoxy-3-(5-nitropyrazin-2-yl)phenyl]amino}-N-(^2H3)methylpyridazine-3-carboxamide] |
| 553 | [2H]C([2H])([2H])NC(=O)c1nnc(NC(=O)C2CC2)cc1Nc1cccc(-c2noc(COCC)n2)c1OC [Example 3, 6-cyclopropaneamido-4-({3-[5-(ethoxymethyl)-1,2,4-oxadiazol-3-yl]-2-methoxyphenyl}amino)-N-(^2H3)methylpyridazine-3-carboxamide] |
| 591 | [2H]C([2H])([2H])NC(=O)c1nnc(NC(=O)C2CC2)cc1Nc1cccc(-c2noc(CCOC)n2)c1OC [Example 4, 6-cyclopropaneamido-4-({2-methoxy-3-[5-(2-methoxyethyl)-1,2,4-oxadiazol-3-yl]phenyl}amino)-N-(^2H3)methylpyridazine-3-carboxamide] |
| 499 | [2H]C([2H])([2H])NC(=O)c1nnc(NC(=O)C2CC2)cc1Nc1cccc(-c2ncns2)c1OC [Example 9, 6-cyclopropaneamido-4-{[2-methoxy-3-(1,2,4-thiadiazol-5-yl)phenyl]amino}-N-(^2H3)methylpyridazine-3-carboxamide] |
